Assays:
[1] = Half life in CD-1 mouse at 1 mg/kg, iv; type: ADME, organism-based; conditions: in vivo
[2] = target: T1, Peroxisome proliferator-activated receptor delta (Homo sapiens, UniProt Q03181)
T1 sequence (Q03181 whole entry): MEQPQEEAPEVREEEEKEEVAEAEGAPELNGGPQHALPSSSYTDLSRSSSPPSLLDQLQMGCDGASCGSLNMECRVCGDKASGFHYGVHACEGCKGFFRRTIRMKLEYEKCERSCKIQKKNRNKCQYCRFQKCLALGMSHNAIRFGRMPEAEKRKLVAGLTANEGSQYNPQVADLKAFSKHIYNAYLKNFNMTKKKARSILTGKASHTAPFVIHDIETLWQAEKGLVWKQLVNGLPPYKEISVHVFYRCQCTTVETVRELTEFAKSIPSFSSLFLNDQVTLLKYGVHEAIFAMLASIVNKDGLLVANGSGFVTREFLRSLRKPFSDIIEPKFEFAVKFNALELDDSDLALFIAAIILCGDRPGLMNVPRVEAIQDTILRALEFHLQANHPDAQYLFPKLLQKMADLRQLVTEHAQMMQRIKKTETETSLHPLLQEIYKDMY
Description: Modulator activity at GAL4-fused human PPARdelta LBD (128 to residue at C-terminus) transfected in African green monkey CV1 cells assessed as receptor transactivation by luciferase reporter gene assay

[3] = AUC in CD-1 mouse at 1 mg/kg, iv; type: ADME, organism-based; design: dose 1 mg/kg; conditions: in vivo
[4] = target: T2, Peroxisome proliferator-activated receptor gamma (Homo sapiens, UniProt P37231); experiment: Modulator activity at GAL4-fused human PPARgamma LBD (unknown origin) transfected in African green monkey CV1 cells assessed as receptor transactivation by luciferase reporter gene assay; type: cell-based, CV-1
T2 sequence (P37231 whole entry): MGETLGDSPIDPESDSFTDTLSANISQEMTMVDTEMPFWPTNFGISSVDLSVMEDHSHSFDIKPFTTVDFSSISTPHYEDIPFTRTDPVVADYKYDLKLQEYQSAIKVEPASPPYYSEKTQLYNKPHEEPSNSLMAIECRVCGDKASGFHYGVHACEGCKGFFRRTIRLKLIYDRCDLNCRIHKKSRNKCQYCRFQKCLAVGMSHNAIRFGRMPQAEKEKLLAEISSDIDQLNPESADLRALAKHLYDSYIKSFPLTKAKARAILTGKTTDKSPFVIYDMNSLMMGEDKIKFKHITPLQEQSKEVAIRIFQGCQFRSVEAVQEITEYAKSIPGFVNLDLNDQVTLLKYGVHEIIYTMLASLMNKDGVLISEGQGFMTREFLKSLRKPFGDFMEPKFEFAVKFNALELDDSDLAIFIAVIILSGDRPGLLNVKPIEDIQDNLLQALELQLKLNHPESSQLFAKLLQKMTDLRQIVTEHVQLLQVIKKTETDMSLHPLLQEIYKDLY

[5] = target: T3, Peroxisome proliferator-activated receptor alpha (Homo sapiens, UniProt Q07869); experiment: Modulator activity at GAL4-fused human PPARalpha LBD (unknown origin) transfected in African green monkey CV1 cells assessed as receptor transactivation by luciferase reporter gene assay; type: cell-based, CV-1
T3 sequence (Q07869 whole entry): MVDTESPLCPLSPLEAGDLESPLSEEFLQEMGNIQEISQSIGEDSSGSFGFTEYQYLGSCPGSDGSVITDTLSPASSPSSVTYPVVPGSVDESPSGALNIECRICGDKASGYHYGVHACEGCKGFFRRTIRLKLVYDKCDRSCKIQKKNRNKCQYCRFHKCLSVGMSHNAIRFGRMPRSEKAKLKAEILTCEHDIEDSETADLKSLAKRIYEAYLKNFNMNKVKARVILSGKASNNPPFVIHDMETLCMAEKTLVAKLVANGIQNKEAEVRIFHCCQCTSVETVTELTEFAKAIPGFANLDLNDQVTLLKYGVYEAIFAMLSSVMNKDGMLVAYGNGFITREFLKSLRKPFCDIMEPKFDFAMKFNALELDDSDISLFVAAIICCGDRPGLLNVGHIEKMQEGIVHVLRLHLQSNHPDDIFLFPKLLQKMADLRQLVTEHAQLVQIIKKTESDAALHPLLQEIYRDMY

[6] = Clearance in CD-1 mouse at 3 mg/kg, iv; type: ADME, organism-based; conditions: in vivo
[7] = Half life in CD-1 mouse at 3 mg/kg, iv; type: ADME, organism-based; conditions: in vivo
[8] = AUC in CD-1 mouse at 3 mg/kg, iv; type: ADME, organism-based; design: dose 3 mg/kg; conditions: in vivo
[9] = Selectivity index, ratio of EC50 for transactivation of GAL4-fused PPARalpha LBD (unknown origin) transfected in CV1 cells to EC50 for transactivation of GAL4-fused human PPARdelta LBD (128 to residue at C-terminus) transfected in African green monkey CV1 cells by luciferase reporter gene assay

half-life [1] | EC50 [2] | AUC [3] | EC50 [4] | EC50 [5] | clearance [6] | half-life [7] | AUC [8] | Structure (SMILES) | Ratio EC50 [9]
1.4 h | 0.0055 µM | 752 ng·h/mL | > 10 µM | > 100 µM | – | – | – | Cc1cnc(-c2ccc(Cl)cc2)n1Cc1ccccc1OCCC[C@@H](C)CC(=O)O | –
– | 0.0003 µM | 240 ng·h/mL | > 10 µM | 2.29 µM | 70 mL/min/kg | 3.1 h | – | C/C(=C\COc1ccccc1Cn1c(C)cnc1-c1ccc(OC(F)(F)F)cc1)CCC(=O)O | –
– | 0.0007 µM | – | > 10 µM | 6.97 µM | – | 0.3 h | 180 ng·h/mL | Cc1cnc(-c2ccc(-c3ccco3)cc2)n1Cc1ccccc1OCCCCCC(=O)O | –
– | – | – | > 10 µM | – | 120 mL/min/kg | 2.4 h | 400 ng·h/mL | Cc1cnc(-c2ccc(-c3ccco3)cc2)n1Cc1ccccc1OCCCCC(C)(C)C(=O)O | –
– | – | – | > 10 µM | 1.23 µM | 160 mL/min/kg | 0.5 h | 300 ng·h/mL | C/C(=C\COc1ccccc1Cn1c(C)cnc1-c1ccc(-c2ccco2)cc1)CCC(=O)O | >1000
– | – | – | > 10 µM | > 100 µM | 73 mL/min/kg | 1.4 h | 650 ng·h/mL | Cc1cnc(-c2ccc(-c3ccco3)cc2)n1Cc1ccccc1OCCC[C@@H](C)CC(=O)O | –
4.3 h | – | 440 ng·h/mL | > 10 µM | 69 µM | – | – | – | Cc1cnc(-c2ccc(Cl)c(F)c2)n1Cc1ccccc1OCCC[C@@H](C)CC(=O)O | –
– | 0.0013 µM | – | > 10 µM | 0.412 µM | 300 mL/min/kg | 0.8 h | 170 ng·h/mL | C/C(=C\COc1ccccc1Cc1c(-c2ccc(-c3ccco3)cc2)ncn1C)CCC(=O)O | >1000

Reference: ChEMBL document CHEMBL4715826, “Selective PPARδ Modulators Improve Mitochondrial Function: Potential Treatment for Duchenne Muscular Dystrophy (DMD)” (ACS Med Chem Lett, 2018)
